Target: bovine cardiac myofibrils (full-length cardiac myosin ATPase in the native sarcomere) (Bos taurus (Bovine), UniProt Q9BE39)
Assay: Skinned bovine cardiac myofibril ATPase assay (PK/LDH-coupled)
Assay type: biochemical
Conditions: Ca2+ activating to 75% of maximal rate; for CDMF75 IC15: concentration giving 15% inhibition; for IC50: read-out: CDMF75 IC50
Method in brief: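 Inhibition of steady-state ATPase read at 340 nm through a PK/LDH-coupled NADH system (0.5 mM NADH, 1.5 mM PEP). Detergent-skinned bovine cardiac myofibrils, 1 mg/mL, were tested at pH 6.8 in PIPES/MgCl2 with 50 μM ATP and calcium adjusted to give pCa50 or pCa75 activation.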

bovine cardiac myofibrils (full-length cardiac myosin ATPase in the native sarcomere), sequence (Q9BE39 whole entry): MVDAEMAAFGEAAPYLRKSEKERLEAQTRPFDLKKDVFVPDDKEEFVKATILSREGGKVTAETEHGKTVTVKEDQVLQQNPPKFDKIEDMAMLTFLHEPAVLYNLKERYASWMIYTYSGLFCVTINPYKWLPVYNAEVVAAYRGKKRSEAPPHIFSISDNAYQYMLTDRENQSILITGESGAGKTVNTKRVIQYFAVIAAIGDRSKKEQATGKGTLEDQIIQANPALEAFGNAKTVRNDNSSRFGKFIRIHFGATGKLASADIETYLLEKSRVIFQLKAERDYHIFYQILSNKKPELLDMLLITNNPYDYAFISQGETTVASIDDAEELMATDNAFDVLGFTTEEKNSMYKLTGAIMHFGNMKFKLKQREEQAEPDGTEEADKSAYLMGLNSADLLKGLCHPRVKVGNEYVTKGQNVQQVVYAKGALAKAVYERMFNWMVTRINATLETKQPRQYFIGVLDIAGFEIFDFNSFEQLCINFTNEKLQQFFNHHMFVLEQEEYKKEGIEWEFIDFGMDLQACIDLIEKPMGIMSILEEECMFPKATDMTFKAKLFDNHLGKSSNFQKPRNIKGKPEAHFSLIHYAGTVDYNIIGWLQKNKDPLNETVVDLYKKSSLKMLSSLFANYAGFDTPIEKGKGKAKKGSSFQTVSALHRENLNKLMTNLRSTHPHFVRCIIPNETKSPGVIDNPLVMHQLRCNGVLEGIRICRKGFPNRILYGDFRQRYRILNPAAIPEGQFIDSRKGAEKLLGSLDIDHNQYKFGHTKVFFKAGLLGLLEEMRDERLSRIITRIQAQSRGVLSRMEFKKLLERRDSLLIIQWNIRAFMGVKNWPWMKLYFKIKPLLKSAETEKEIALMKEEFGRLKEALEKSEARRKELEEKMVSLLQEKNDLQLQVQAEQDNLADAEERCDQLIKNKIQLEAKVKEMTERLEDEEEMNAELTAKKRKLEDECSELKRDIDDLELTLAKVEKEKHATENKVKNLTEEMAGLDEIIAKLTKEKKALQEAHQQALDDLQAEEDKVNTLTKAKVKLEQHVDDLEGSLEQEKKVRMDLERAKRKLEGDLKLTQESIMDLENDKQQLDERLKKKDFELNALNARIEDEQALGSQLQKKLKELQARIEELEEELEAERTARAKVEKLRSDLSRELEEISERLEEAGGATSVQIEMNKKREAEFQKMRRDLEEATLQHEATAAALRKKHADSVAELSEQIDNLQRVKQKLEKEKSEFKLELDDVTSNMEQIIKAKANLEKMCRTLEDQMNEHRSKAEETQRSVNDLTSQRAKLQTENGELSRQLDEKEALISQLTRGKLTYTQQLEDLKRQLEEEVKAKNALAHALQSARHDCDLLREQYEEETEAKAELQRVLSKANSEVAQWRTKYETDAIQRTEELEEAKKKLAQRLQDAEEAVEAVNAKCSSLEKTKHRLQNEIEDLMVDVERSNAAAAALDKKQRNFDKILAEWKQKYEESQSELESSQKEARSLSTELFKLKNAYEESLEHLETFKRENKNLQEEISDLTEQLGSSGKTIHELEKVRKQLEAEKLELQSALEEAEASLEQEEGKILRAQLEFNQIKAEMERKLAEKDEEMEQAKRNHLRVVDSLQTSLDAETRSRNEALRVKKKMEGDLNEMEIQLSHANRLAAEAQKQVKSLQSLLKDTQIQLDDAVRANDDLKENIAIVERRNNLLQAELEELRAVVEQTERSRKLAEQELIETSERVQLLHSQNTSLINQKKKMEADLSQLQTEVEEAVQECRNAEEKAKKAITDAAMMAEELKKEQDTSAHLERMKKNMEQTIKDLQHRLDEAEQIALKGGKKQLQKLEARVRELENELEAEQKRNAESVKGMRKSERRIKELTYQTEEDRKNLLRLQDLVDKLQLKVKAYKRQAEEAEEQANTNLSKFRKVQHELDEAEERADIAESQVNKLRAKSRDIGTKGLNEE
bovine cardiac myofibrils (full-length cardiac myosin ATPase in the native sarcomere), sequence (P85100 whole entry partner): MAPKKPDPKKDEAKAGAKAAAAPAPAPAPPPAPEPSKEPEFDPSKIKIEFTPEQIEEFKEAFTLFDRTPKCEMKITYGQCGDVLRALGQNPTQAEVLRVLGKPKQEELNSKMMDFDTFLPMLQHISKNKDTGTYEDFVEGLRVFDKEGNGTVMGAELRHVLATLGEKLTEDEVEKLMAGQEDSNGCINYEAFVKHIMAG
bovine cardiac myofibrils (full-length cardiac myosin ATPase in the native sarcomere), sequence (Q3SZE5 whole entry partner): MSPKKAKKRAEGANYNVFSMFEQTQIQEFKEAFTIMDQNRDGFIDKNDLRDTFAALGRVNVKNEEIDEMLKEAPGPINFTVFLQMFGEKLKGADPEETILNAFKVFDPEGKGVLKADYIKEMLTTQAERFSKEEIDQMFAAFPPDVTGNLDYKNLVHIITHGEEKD

Row | CDMF75 IC15 | IC50 | SMILES
1 | 0.3 µM | 1.1 µM | CCc1nc(-c2ccc3c(c2)CC[C@H]3NC(=O)c2cn[nH]c2)no1 [Compound 469, (R)-N-(5-(5-ethyl-1,2,4-oxadiazol-3-yl)-2,3-dihydro-1H-inden-1-yl)-1H-pyrazole-4-carboxamide]
2 | 4.4 µM | 16.8 µM | CCc1nc(-c2ccc3c(c2)CC[C@H]3NC(=O)c2cnn(C3COC3)c2)no1 [Compound 470, (R)-N-(5-(5-ethyl-1,2,4-oxadiazol-3-yl)-2,3-dihydro-1H-inden-1-yl)-1-(oxetan-3-yl)-1H-pyrazole-4-carboxamide]
3 | 0.8 µM | 3.1 µM | CCc1nc(-c2ccc3c(c2)CC[C@H]3NC(=O)c2cnn(CCOC)c2)no1 [Compound 472, (R)-N-(5-(5-ethyl-1,2,4-oxadiazol-3-yl)-2,3-dihydro-1H-inden-1-yl)-1-(2-methoxyethyl)-1H-pyrazole-4-carboxamide]
4 | 1.1 µM | 3.8 µM | CCc1nc(-c2ccc3c(c2)CC[C@H]3NC(=O)c2cnn(CC(=O)OC)c2)no1 [Compound 473, methyl (R)-2-(4-((5-(5-ethyl-1,2,4-oxadiazol-3-yl)-2,3-dihydro-1H-inden-1-yl)carbamoyl)-1H-pyrazol-1-yl)acetate]
5 | 0.9 µM | 3.8 µM | CCc1nc(-c2ccc3c(c2)CC[C@H]3NC(=O)c2cnn(CC(N)=O)c2)no1 [Compound 475, (R)-1-(2-amino-2-oxoethyl)-N-(5-(5-ethyl-1,2,4-oxadiazol-3-yl)-2,3-dihydro-1H-inden-1-yl)-1H-pyrazole-4-carboxamide]
6 | 4.2 µM | 19.5 µM | CCc1nc(-c2ccc3c(c2)CC[C@H]3NC(=O)c2cnn(CC(C)(C)O)c2)no1 [Compound 476, (R)-N-(5-(5-ethyl-1,2,4-oxadiazol-3-yl)-2,3-dihydro-1H-inden-1-yl)-1-(2-hydroxy-2-methylpropyl)-1H-pyrazole-4-carboxamide]
7 | 8.5 µM | 39.2 µM | CCc1nc(-c2ccc3c(c2)CC[C@H]3NC(=O)c2cnn(C3CN(C(C)=O)C3)c2)no1 [Compound 477, (R)-1-(1-acetylazetidin-3-yl)-N-(5-(5-ethyl-1,2,4-oxadiazol-3-yl)-2,3-dihydro-1H-inden-1-yl)-1H-pyrazole-4-carboxamide]
8 | 2.9 µM | 11.9 µM | CCc1nc(-c2ccc3c(c2)CC[C@H]3NC(=O)c2cnn(C3CN(S(C)(=O)=O)C3)c2)no1 [Compound 478, (R)-N-(5-(5-ethyl-1,2,4-oxadiazol-3-yl)-2,3-dihydro-1H-inden-1-yl)-1-(1-(methylsulfonyl)azetidin-3-yl)-1H-pyrazole-4-carboxamide]
9 | 4.5 µM | 23.1 µM | CCc1nc(-c2ccc3c(c2)CC[C@H]3NC(=O)c2cnn(C3CN(C(=O)NC)C3)c2)no1 [Compound 479, (R)-N-(5-(5-ethyl-1,2,4-oxadiazol-3-yl)-2,3-dihydro-1H-inden-1-yl)-1-(1-(methylcarbamoyl)azetidin-3-yl)-1H-pyrazole-4-carboxamide]
10 | 1.9 µM | 7.8 µM | CCc1nc(-c2ccc3c(c2)CC[C@H]3NC(=O)c2cnn(C3CN(C(N)=O)C3)c2)no1 [Compound 481, (R)-1-(1-carbamoylazetidin-3-yl)-N-(5-(5-ethyl-1,2,4-oxadiazol-3-yl)-2,3-dihydro-1H-inden-1-yl)-1H-pyrazole-4-carboxamide]
11 | 3.9 µM |  | CCc1nc(-c2ccc3c(c2)CCC3C(=O)Nc2cnn(C)c2)no1 (centres unmarked) [Compound 482, 5-(5-ethyl-1,2,4-oxadiazol-3-yl)-N-(1-methyl-1H-pyrazol-4-yl)-2,3-dihydro-1H-indene-1-carboxamide]
12 | 2.0 µM | 6.8 µM | CCc1nc(-c2ccc3c(c2)CCC3C(=O)Nc2ccnc(C)c2)no1 (centres unmarked) [Compound 483, 5-(5-ethyl-1,2,4-oxadiazol-3-yl)-N-(2-methylpyridin-4-yl)-2,3-dihydro-1H-indene-1-carboxamide]
13 | 39.2 µM | 39.2 µM | CCc1nc(-c2ccc3c(c2)CC[C@H]3NC(=O)c2cnn(C3CNC3)c2)no1 [Compound 484, (R)-1-(azetidin-3-yl)-N-(5-(5-ethyl-1,2,4-oxadiazol-3-yl)-2,3-dihydro-1H-inden-1-yl)-1H-pyrazole-4-carboxamide]
14 | 1.2 µM | 4.1 µM | CCc1nc(-c2ccc3c(c2)CC[C@H]3NC(=O)c2cnn(CC(O)CO)c2)no1 (stereo partly drawn) [Compound 485, 1-(2,3-dihydroxypropyl)-N-((R)-5-(5-ethyl-1,2,4-oxadiazol-3-yl)-2,3-dihydro-1H-inden-1-yl)-1H-pyrazole-4-carboxamide]
15 | 4.1 µM | 24.3 µM | CCc1nc(-c2ccc3c(c2)CC[C@H]3NC(=O)c2cn[nH]c2OC)no1 [Compound 486, (R)-N-(5-(5-ethyl-1,2,4-oxadiazol-3-yl)-2,3-dihydro-1H-inden-1-yl)-5-methoxy-1H-pyrazole-4-carboxamide]
16 | 0.9 µM | 3.4 µM | Cc1nc(-c2ccc3c(c2)CC[C@H]3NC(=O)c2cn[nH]c2)no1 [Compound 487, (R)-N-(5-(5-methyl-1,2,4-oxadiazol-3-yl)-2,3-dihydro-1H-inden-1-yl)-1H-pyrazole-4-carboxamide]
17 | 1.1 µM | 4.3 µM | CC(C)c1nc(-c2ccc3c(c2)CC[C@H]3NC(=O)c2cn[nH]c2)no1 [Compound 488, (R)-N-(5-(5-isopropyl-1,2,4-oxadiazol-3-yl)-2,3-dihydro-1H-inden-1-yl)-1H-pyrazole-4-carboxamide]
18 | 1.6 µM | 6.9 µM | COCc1nc(-c2ccc3c(c2)CC[C@H]3NC(=O)c2cn[nH]c2)no1 [Compound 490, (R)-N-(5-(5-(methoxymethyl)-1,2,4-oxadiazol-3-yl)-2,3-dihydro-1H-inden-1-yl)-1H-pyrazole-4-carboxamide]
19 | 1.0 µM | 3.7 µM | [2H]C([2H])([2H])c1nc(-c2ccc3c(c2)CC[C@H]3NC(=O)c2cn[nH]c2)no1 [Compound 491, (R)-N-(5-(5-(methyl-d3)-1,2,4-oxadiazol-3-yl)-2,3-dihydro-1H-inden-1-yl)-1H-pyrazole-4-carboxamide]
20 | 1.1 µM | 4 µM | CCOC(=O)C(C)c1nc(-c2ccc3c(c2)CC[C@H]3NC(=O)c2ccnn2C)no1 (stereo partly drawn) [Compound 492, ethyl 2-(3-((R)-1-(1-methyl-1H-pyrazole-5-carboxamido)-2,3-dihydro-1H-inden-5-yl)-1,2,4-oxadiazol-5-yl)propanoate]
21 | 5.6 µM | 21.4 µM | CCOC(=O)C(C)c1nc(-c2ccc3c(c2)CCC3NC(=O)c2cnc(C)o2)no1 (centres unmarked) [Compound 493, ethyl 2-(3-(1-(2-methyloxazole-5-carboxamido)-2,3-dihydro-1H-inden-5-yl)-1,2,4-oxadiazol-5-yl)propanoate]
22 | 2.4 µM | 10 µM | CCc1nc(-c2ccc3c(c2)CC[C@H]3NC(=O)c2cnn(CCOC(C)=O)c2)no1 [Compound 494, (R)-2-(4-((5-(5-ethyl-1,2,4-oxadiazol-3-yl)-2,3-dihydro-1H-inden-1-yl)carbamoyl)-1H-pyrazol-1-yl)ethyl acetate]
23 | 10.0 µM | 39.2 µM | CCc1nc(-c2ccc3c(c2)C[C@H](O)[C@H]3NC(=O)c2cnn(C)c2)no1 [Compound 495, N-((1S,2S)-5-(5-ethyl-1,2,4-oxadiazol-3-yl)-2-hydroxy-2,3-dihydro-1H-inden-1-yl)-1-methyl-1H-pyrazole-4-carboxamide]
24 | 7.1 µM | 34.3 µM | CC(CO)c1nc(-c2ccc3c(c2)CC[C@H]3NC(=O)c2ccnn2C)no1 (stereo partly drawn) [Compound 496, N-((1R)-5-(5-(1-hydroxypropan-2-yl)-1,2,4-oxadiazol-3-yl)-2,3-dihydro-1H-inden-1-yl)-1-methyl-1H-pyrazole-5-carboxamide]
25 | 7.4 µM | 39.2 µM | C[C@H](CO)c1nc(-c2ccc3c(c2)CC[C@H]3NC(=O)c2ccnn2C)no1 [Compound 497, N-((R)-5-(5-((R)-1-hydroxypropan-2-yl)-1,2,4-oxadiazol-3-yl)-2,3-dihydro-1H-inden-1-yl)-1-methyl-1H-pyrazole-5-carboxamide]
26 | 7.9 µM | 34.7 µM | C[C@@H](CO)c1nc(-c2ccc3c(c2)CC[C@H]3NC(=O)c2ccnn2C)no1 [Compound 498, N-((R)-5-(5-((S)-1-hydroxypropan-2-yl)-1,2,4-oxadiazol-3-yl)-2,3-dihydro-1H-inden-1-yl)-1-methyl-1H-pyrazole-5-carboxamide]
27 | 2.4 µM | 39.2 µM | CC(C)c1nc(-c2ccc3c(c2)CC[C@H]3NC(=O)c2nn[nH]n2)no1 [Compound 499, (R)-N-(5-(5-isopropyl-1,2,4-oxadiazol-3-yl)-2,3-dihydro-1H-inden-1-yl)-2H-tetrazole-5-carboxamide]
28 | 1.0 µM | 6.5 µM | CC(C)c1nc(-c2ccc3c(c2)CC[C@H]3NC(=O)c2nnn(Cc3ccccc3)n2)no1 [Compound 500, (R)-2-benzyl-N-(5-(5-isopropyl-1,2,4-oxadiazol-3-yl)-2,3-dihydro-1H-inden-1-yl)-2H-tetrazole-5-carboxamide]
29 | 0.3 µM | 1.1 µM | CCc1nc(-c2ccc3c(c2)CC[C@H]3NC(=O)c2nnn(Cc3ccccc3)n2)no1 [Compound 501, (R)-2-benzyl-N-(5-(5-ethyl-1,2,4-oxadiazol-3-yl)-2,3-dihydro-1H-inden-1-yl)-2H-tetrazole-5-carboxamide]
30 | 2.0 µM | 8 µM | CCc1nc(-c2ccc3c(c2)CC[C@H]3NC(=O)c2nn[nH]n2)no1 [Compound 502, (R)-N-(5-(5-ethyl-1,2,4-oxadiazol-3-yl)-2,3-dihydro-1H-inden-1-yl)-2H-tetrazole-5-carboxamide]

— patent US12065436B2, “Cardiac sarcomere inhibitors” (Cytokinetics, Inc., priority 2018, dated 2024)
